Patent publication EP0309541B1, “SULFONYLCARBOXAMIDES” (AMERICAN HOME PRODUCTS CORPORATION, priority 1987, dated 1988)
pIC50: −log10 of the molar value.

Legend:
[1] = test system: rat carrageenan paw edema; experiment: Rat carrageenan paw edema assay; assay type: in vivo; conditions: for ED50: oral, standard drugs, rat paw edema, read-out: Oral ED50 (95% C.L.); for % Inhibition at 50 mg/kg (peroral): 1 hour prior to carrageenan, edema at 3 hours
Protocol: The compounds of the invention are further tested in the rat carrageenan paw edema assay to determine their ability to inhibit the acute inflammatory response.
(§1) This assay is carried out as follows:
140-180 gm male Sprague-Dawley rats, in groups of 6 animals are injected subcutaneously in the right paw with 0.1 ml of 1% carrageenan at zero time. Mercury plethysmographic readings (ml) of the paw are made at zero time and 3 hours later. Test compounds are suspended or dissolved in 0.5% methylcellulose and given perorally 1 hour prior to carrageenan administration.
The increase in paw volume (edema in ml.) produced by the carrageenan is measured. […] Unpaired Student's t-test is used to determine statistical significance.

[2] = test system: LTD₄ induced bronchoconstriction; experiment: Inhibition of leukotriene-induced bronchospasm in guinea pigs in vivo; conditions: 10 minutes before induction of bronchospasm, inhibition of % max AUC
Protocol: The assay of this Example measures the in vivo ability of the compounds of the invention to inhibit the bronchospasm induced in guinea pigs by the exogenously administered leukotrienes C₄ and/or D₄.
as §1
Male Hartley strain guinea pigs (350-600g) are anesthetized with pentobarbital sodium (50 mg/kg, i.p.). The jugular vein is cannulated for injection of drugs and the carotid artery for monitoring blood pressure. The trachea is cannulated for artificial ventilation by a miniature Starling pump and for indirect measurement of respiratory volume changes. The animals are then pretreated with succinylcholine (2 mg/kg i.v.) and indomethacin (10 mg/kg i.v. in trizma 8.3 buffer, 9 minutes prior to leukotriene challenge). Submaximal bronchoconstrictor responses are established in control animals by varying the dose-levels of leukotriene. Intravenous dose-levels for LTC₄ range from 0.4 to 0.6 µg/kg and for LTD₄ the range is from 0.3 to 0.5 µg/kg.
Test drugs (dissolved in a solvent such as propylene glycol, polyethylene glycol 400 or saline) are administered either intraduodenally, by aerosol or intragastrically at 2 or 10 minutes before induction of bronchospasm by administration of either LTC₄ or LTD₄ at the predetermined dose-level. Aerosol of soluble drugs or leukotrienes are produced in-line for 10 seconds only by actuation of an ultrasonic nebulizer (Monaghan). Aerosolized drug dosage is expressed in terms of solution concentration and by a fixed aerosol exposure time (approximately 10 seconds). Control animal receive solvent (2 ml/kg i.d. or appropriate aerosol) in place of drug.
Respiratory volume changes are determined by a calibrated piston whose travel is recorded, via a linear transducer, on a Beckman Dynograph recorder. Maximal bronchoconstrictor volume is determined by clamping off the trachea at the end of the experiment. Overflow volumes at 1, 3 and 5 minutes are obtained from the recorded charts.
Student's t-test for unpaired data is used to determine statistical significance (p < 0.05).

[3] = test system: synthesis of 5-HETE by rat glycogen elicited polymorphonuclear leukocytes; experiment: Inhibition of 5-HETE synthesis by rat glycogen elicited polymorphonuclear leukocytes; assay type: cell-based; conditions: Leukocyte, rat peritoneal PMN, A23187 10 µM, [14C] arachidonic acid, read-out: IC₅₀
Protocol: The assay of this Example measures the ability of the compounds of the invention to inhibit the synthesis of 5-HETE by rat glycogen elicited polymorphonuclear leukocytes.
The assay is carried out as follows:
(§2) Peritoneal PMN are obtained from female Wistar rats (150-250 g) that received an i.p. injection of 6% glycogen (10 ml). After 24 hours, rats are killed by Co₂ asphyxiation and peritoneal cells are harvested by peritoneal lavage using Ca⁺⁺ and Mg⁺⁺ free Hanks' balanced salt solution (HBSS). The peritoneal exudate is centrifuged at 400 g for 10 minutes. After centrifugation, the lavaged fluid is removed and the cell pellet is resuspended in HBSS containing Ca⁺⁺ and Mg⁺⁺ and 10 mM L-cysteine at a concentration of 2 x 10⁷ cells/ml. To 1 ml portions of cell suspension, test drugs or vehicle are added and incubated at 37°C for 10 minutes. Following this preincubation, the calcium ionophore (10 µM), A23187, is added together with 0.5 µCi [₁₄C] arachidonic acid and further incubated for 10 minutes. The reaction is stopped by the addition of ice cold water (3 ml) and acidifying to pH 3.5. Lipoxygenase products are then extracted twice into diethyl ether. […] After chromatography, the areas associated with 5-HETE standard are identified by autoradiography, cut out and quantitated by liquid scintillation.

[4] = test system: synthesis of the arachidonic acid cyclooxygenase oxidation product PGE₂; experiment: Inhibition of PGE₂ synthesis (cyclooxygenase product) by rat polymorphonuclear leukocytes; assay type: cell-based; conditions: Leukocyte, rat peritoneal PMN, procedure of Example 4, read-out: IC₅₀
Protocol: as §2, with “scintillation. […]” for “scintillation.”
In this assay, the procedure of Example 4 is carried out as described. […] After chromatography, the areas associated with the PGE₂ standard are identified by autoradiography, cut out and quantitated by liquid scintillation techniques.
The results are calculated as in Example 4.

[5] = 25 mg/kg intraduodenally administered
[6] = 25 mg/kg intragastrically administered

Row | Compound | ED50 [1] | % Inhibition [2, 5] | % Inhibition [2, 6] | % Inhibition at 50 mg/kg (peroral) [1] | pIC50 [3] | pIC50 [4]
1 | CC(=O)Oc1ccccc1C(=O)O [Aspirin] | 145 mg/kg | – | – | – | – | –
2 | Cc1ccc(S(=O)(=O)NC(=O)CCc2cccc(OCc3ccc4ccccc4n3)c2)cc1 [Example 1, N-[(4-Methylphenyl)sulfonyl]-3-(2-quinolylmethoxy)benzenepropanamide] | – | 97% | 66% | 40% | – | –
3 | Cc1ccc(S(=O)(=O)NC(=O)c2cccc(OCc3ccc4ccccc4n3)c2)cc1 [Example 3, N-[(4-Methylphenyl)sulfonyl]-3-(2-quinolinylmethoxy)benzamide] | – | 97% | 91% | 50% | 5.22 | 4.89
4 | COc1ccc2c(c1)c(CC(=O)O)c(C)n2C(=O)c1ccc(Cl)cc1 [Indomethacin] | 3.7 mg/kg | – | – | – | – | –
5 | CCCCC1C(=O)N(c2ccccc2)N(c2ccccc2)C1=O [Phenylbutazone] | 26.2 mg/kg | – | – | – | – | –
